According to US11565003B2, “Mechanical opening of lipid bilayers by molecular nanomachines” (William Marsh Rice University, priority 2016, dated 2023):
Residues, ends and D or L forms follow the SMILES beside them. *: point of attachment. X1 = C[C@@H]1Cc2ccc3ccccc3c2/C1=C1\c2cc(C#CCCN=[N+]=[N-])ccc2Sc2ccc(C#CCCn3cc(C(=O)*)nn3)cc21

Experiments:
[1] = tested on: PC-3 cells; assay: 24 hours incubation without UV: proliferation and apoptosis (Annexin V, Image Cytometry); assay type: cell-based, human
Description: When PC-3 cells are loaded at 0.5 or 1.0 μM with 9 or 10, washed three times (Method B) or unwashed (Method A) after 24 hours of incubation, the cells visually appear without major signs of toxicity. However, the cells which had been incubated with 9 or 10 over 24 hours were not dividing as prolifically. The cultures appear to be populated ˜25% less in the presence of 9 and 20% of the cells in 10 compared to control untreated cells (FIGS. 12A-E).
In order to further investigate this point, these cells were collected via gentle centrifugation and re-suspended in fresh PBS and analyzed by Image Cytometry. Using Annexin V, these cells were all confirmed to show signs of apoptosis at 93±5%. This is in contrast to the remaining coverslip surface-bound cells that appear healthy.
These latter types of non-apoptotic cells show identical percentage of necrosis acceleration upon subsequent UV-activation of the cell-surface bound nanomachines compared to their shorter incubation time analogues. Thus, it appears that, upon 24 hour incubation, a noticeable amount of cells have nanomachines 9 and 10 either bound to vital cell membrane channels or transport proteins or they are internalized, subsequently shutting down some natural homeostatic mechanisms that leads to programmed cell death (FIGS. 12A-E). Furthermore, this is not the case with shorter incubation times regardless of whether Method A or B is used.

[2] = tested on: CHO cells; assay: UV-activated nanomechanical necrosis, live cell confocal microscopy, CHO; assay type: cell-based, Chinese hamster; details: 355 nm UV; for % acceleration for full necrosis: versus UV upon blank cells
Description: (§1) Following the synthetic bilipid vesicle experiments, nanomechanical action upon live cells was studied using confocal microscopy aided by a super-resolution technique called Phase Modulation Nanoscopy. Applicants used two experimental methods. In the first method (Method A), the molecular motors were loaded into the cell media and the imaging was initiated within 5 minutes to 24 hours. In the second method, (Method B), the molecular motors were loaded into the cell media, incubated for 30 minutes to 24 hours, and then washed three times with fresh molecular motor-free media before imaging. […]
(§2) Microscopy cells were seeded in untreated iBibi 100 μL live cell channels and allowed to grow to 40% to 60% confluence, at 37° C. in 5% CO2. At this stage, the medium was replaced and cells were treated with the studied nanomachines and co-stains as appropriate, with 0.1% DMSO (as detailed above) present in the final imaging medium. For live cell imaging, DMEM/F12 media (10% FBS) lacking phenol red was used from this point onwards. Following incubation, where Method B was used, the channels were washed with live cell imaging media and imaged using a purpose build incubator housing the microscope maintaining 37° C., 5% CO2 and 10% humidity.
(§3) All live cell imaging experiments used either NIH 3T3 mouse skin fibroblast cells, PC-3 cells, a grade 3 human prostate adenocarcinoma, or Chinese hamster ovary cells (CHO). These are all well-studied cell lines with discrete morphological compositions. Each molecular machine was used as a stock solution at 0.10 to 1.00 μM with total dimethyl sulfoxide (DMSO) concentrations not exceeding 0.1% in the final cell media in order to avoid unwanted cell membrane permeabilization, the DMSO being required for solubility of the organic nanomachines. All loading experiments are carried out in a light-suppressed manner and the possibility of induced or accelerated uptake due to interaction between the molecular motors and the applied co-stain has been eliminated using a series of individual and reversed loading experiments.
(§4) All experimental imaging parameters (i.e., laser beam size, confocal pinhole size, laser intensity, line scanning speed, scanning area (field of view, FOV), and line averaging sequences) were kept constant throughout the experiments. The accuracy and errors associated with the establishment of accelerated necrosis are determined based on one dual channel imaging sequence, which takes 15 seconds in total. This imaging sequence has been carefully established using untreated live cells.
(§5) Steady state fluorescence images were recorded using a PhMoNa enhanced Leica SP5 II LSCM equipped with a HCX PL APO 63×/1.40 NA LambdaBlue Oil immersion objective. As an initial control experiment to establish the UV-induced cell toxicity threshold, while mitigating voxel exposure and ensuring sufficient laser dwell time, an imaging sequence has been established to monitor cell morphological and physiological changes as a function of time. All experiments used cell-line-determined culture medium containing 0.1% DMSO.
(§6) The applied 100 Hz detection sequence was based on a bidirectional dual-channel continuous scanning method where a minimalistic non-damaging visible laser light (458 nm, 0.2 mW) is used in conjunction with the above detailed UV exposure. This is set as a 2 line/scan accumulation parallel acquisition sequence that is recorded as a function of time. Studied channels correspond to transmission images and UV-induced mitochondrial auto-fluorescence detected at 460 to 550 nm. Applicants further confirmed that the effectiveness of monitoring the UV-activated nanomechanical action on live cells using a conventional CW mercury-arc excitation source equipped with an epi-fluorescence setup consisting of a Zeiss Axiovert 200M inverted microscope, as discussed in FIGS. 18A-C. […]

[3] = tested on: PC-3 cells; assay: UV-activated nanomechanical necrosis, live cell confocal microscopy, PC-3; assay type: cell-based, human; details: for selectivity for targeted PC-3 cells over non-targeted control cells (in words): NIH 3T3 and CHO as non-targeted controls; for Time of Full Necrosis / Time of Initial Necrosis / % acceleration for full necrosis: 355 nm UV; for % acceleration for full necrosis: versus UV upon blank cells
Description: Following the synthetic bilipid vesicle experiments, nanomechanical action upon live cells was studied using confocal microscopy aided by a super-resolution technique called Phase Modulation Nanoscopy. Applicants used two experimental methods. In the first method (Method A), the molecular motors were loaded into the cell media and the imaging was initiated within 5 minutes to 24 hours. In the second method, (Method B), the molecular motors were loaded into the cell media, incubated for 30 minutes to 24 hours, and then washed three times with fresh molecular motor-free media before imaging.
Next, Applicants used the smaller nanomachine, 3. Initial control experiments (blank) were performed without nanomachines being present. UV-induced (355 nm) PC-3 necrosis is not initiated until approximately scan 20 (corresponding to 300 second continuous scanning UV exposure, 400 nJ/voxel total dwell time), characterized by massive disruption and rupture of the mitochondrial network and subsequent well-pronounced auto-fluorescent signal detectable in the nucleoli and nucleus wall (FIG. 7A). This is observable by the nucleoli membrane permeabilization and DNA damage at the onset of necrosis. The UV-induced necrosis reaches final stages at approximately scan 40 (corresponding to 600 seconds) that is consistent with characteristic extracellular membrane rupture and homogenous cytosolic auto-fluorescence, indicating loss of cellular organelle boundaries.
as §2, §3, §4
Steady state fluorescence images were recorded using a PhMoNa enhanced Leica SP5 II LSCM equipped with a HCX PL APO 63×/1.40 NA LambdaBlue Oil immersion objective. As an initial control experiment to establish the UV-induced cell toxicity threshold, while mitigating voxel exposure and ensuring sufficient laser dwell time, an imaging sequence has been established to monitor cell morphological and physiological changes as a function of time. All experiments used cell-line-determined culture medium containing 0.1% DMSO. […]

[4] = tested on: NIH 3T3 cells; assay: UV-activated nanomechanical necrosis, live cell confocal microscopy, NIH 3T3; assay type: cell-based, mouse; details: for Time of Full Necrosis / Time of Initial Necrosis / % acceleration for full necrosis: 355 nm UV; for % acceleration for full necrosis: versus UV upon blank cells
Description: as §1, §2, §3, §4, §5, §6

[5] = tested on: NIH 3T3 cells; assay: Two-photon near-infra red activation, PI dye entry, NIH 3T3; assay type: cell-based, mouse; details: NIH 3T3, 1 μM, PI 200 nM
Description: (§7) Two-photon microscopy studies of NIH 3T3 cells were executed on a Nikon E600 upright confocal microscope coupled to a tuneable (710-950 nm Coherent MaiTai) multiphoton source operating at (20%) 240 mW power using a 166 lps scan speed and 128×128 pixel frame resolution for MP-illumination. Images (512×512 pixel, 166 lps) were recorded using a 543 nm (1 mW HeNe) laser combined with a 560 nm long-pass filter to record PI (200 nM) fluorescence and follow the onset of induced necrosis.
(§8) Two photon live cell microscopy studies were also executed on a Nikon E600 upright confocal microscope coupled to a tuneable (710-950 nm Coherent MaiTai) multiphoton source operating at (19.8%) 240 mW power at 720 nm using 166 lines/sec scan speed and 128×128 pixel frame resolution for MP-illumination. An oil immersion Nikon IR objective (×60/1.4 NA) was used. Images (512×512 pixel, 166 l/s) were recorded using a 543 nm (1 mW HeNe) laser combined with a 570 nm long-pass filter to record PI dyes (200 nM). Fluorescence was measured as 2 frame averaged images in order to follow the onset of induced necrosis. Necrosis times have been assigned to detectable PI signals in the nucleolus.

[6] = tested on: PC-3 cells; assay: Two-photon near-infra red activation, PI dye entry, PC-3; assay type: cell-based, human; details: PC-3, 1 μM, PI 200 nM
Description: as §7, §8

[7] = PC-3, Method B (washed three times)
[8] = NIH 3T3, Method B (washed three times)

SMILES | selectivity for targeted PC-3 cells over non-targeted control cells (in words) [3] | Time of Full Necrosis ([3]; PC-3, Method A (no washing)) | Time of Initial Necrosis ([3]; PC-3, Method A (no washing)) | % acceleration for full necrosis ([3]; PC-3, Method A) | Time of Full Necrosis [3, 7] | Time of Initial Necrosis [3, 7] | % acceleration for full necrosis ([3]; PC-3, Method B) | Time of Full Necrosis ([4]; NIH 3T3, Method A (no washing)) | Time of Initial Necrosis ([4]; NIH 3T3, Method A (no washing)) | % acceleration for full necrosis ([4]; NIH 3T3, Method A) | Time of Full Necrosis [4, 8] | Time of Initial Necrosis [4, 8] | % acceleration for full necrosis ([4]; NIH 3T3, Method B) | also measured
CC(C)[C@H](NC(=O)[C@H](CCCNC(=N)N)NC(=O)[C@@H](NC(=O)[C@H](CC(N)=O)NC(=O)[C@H](CO)NC(=O)c1cn(CCC#Cc2ccc3c(c2)/C(=C2/c4c(ccc5ccccc45)C[C@H]2C)c2cc(C#CCCN=[N+]=[N-])ccc2S3)nn1)[C@@H](C)O)C(=O)N[C@@H](C)C(=O)N1CCC[C@H]1C(=O)O [Compound 10] (X1-SNTRVAP-OH) | selectively target the PC-3 cell line over CHO cells | 420 s | 195 s | 30% | 435 s | 210 s | 27.5% | 540 s | 270 s | 10% | 600 s | 300 s | 0% | cultures populated less compared to control untreated cells ([1]; PC-3, 0.5 or 1.0 μM, 24 hours of incubation, no UV): 20%; mobilized cells showing signs of apoptosis (Annexin V) ([1]; PC-3, 24 hours incubation, cells collected from culture media): 93±5%; Time of Full Necrosis ([2]; Method A (no washing)): 540 s; Time of Initial Necrosis ([2]; Method A (no washing)): 270 s; % acceleration for full necrosis ([2]; Method A): 10%; Time of Full Necrosis ([2]; Method B (washed three times)): 600 s; Time of Initial Necrosis ([2]; Method B (washed three times)): 300 s; % acceleration for full necrosis ([2]; Method B): 0%; accelerated necrosis upon UV-activation after washing and further 24 hours in rotor free media ([3]; PC-3, incubated 30 minutes to 4 hours, washed three times, 24 hours rotor free media): 25%; UV-accelerated nanomechanical necrosis after 24 hours incubation (in words) ([4]; NIH 3T3, incubated 24 hours): less than half the efficiency compared to identical experiments using the targeted PC-3 cells
C[C@H](NC(=O)[C@H](CCC(=O)O)NC(=O)CNC(=O)[C@H](CC(=O)O)NC(=O)CCc1cn(CCC#Cc2ccc3c(c2)/C(=C2/c4c(ccc5ccccc45)C[C@H]2C)c2cc(C#CCCN=[N+]=[N-])ccc2S3)nn1)C(N)=O [Compound 8] | No selectivity was observed | 360 s | 150 s | 40% | 360 s | 150 s | 40% | 375 s | 150 s | 37.5% | 360 s | 150 s | 40% | PI dye entry upon two-photon near-infra red illumination (in words) [5]: resulting in Propidium Iodide (PI) dyes entering; PI dye entry upon two-photon near-infra red illumination (in words) [6]: resulting in Propidium Iodide (PI) dyes entering
